Reference: patent US20170240556A1, “BIFLUORODIOXALANE-AMINO-BENZIMIDAZOLE KINASE INHIBITORS FOR THE TREATMENT OF CANCER, AUTOIMMUNEINFLAMMATION AND CNS DISORDERS” (4SC DISCOVERY GMBH, priority 2012, published 2017)

How the values were obtained:
[1] = target: Casein kinase 1 epsilon (CSKN1E) (Homo sapiens, UniProt P49674); experiment: Casein kinase assay, CK1 epsilon; format: biochemical; conditions: recombinant CSKN1E 30 nM, ATP 10 μM
Description: (§1) The recombinant protein Casein kinase 1 delta (CSKN1D) was added to the substrate solution in a concentration of 5 nM and gently mixed. Dilution series in of compounds of the present invention in DMSO were added to the reaction mixture, followed after 20 min by addition of a mixture of ATP and ^33P-ATP (specific activity 0.01 μCi/μl final) to a final concentration of 10 μM. Reactions were carried out at 25° C. for 120 min, followed by spotting the reactions onto P81 ion exchange filter paper. Unbound phosphate was removed by washing of the filters in 0.75% phosphoric acid. […] IC50 values and curve fits were obtained using the program Prism® (Graph Pad Software).
The above assay was also used to determine the inhibitory capacity of the compounds of the present invention on Casein Kinase 1 epsilon, wherein instead of CSKN1D, recombinant protein Casein kinase 1 epsilon (CSKN1E) was added to the substrate solution in a concentration of 30 nM and gently mixed.

[2] = target: Casein kinase 1 delta (CSKN1D) (Homo sapiens, UniProt P48730); experiment: Casein kinase assay, CK1 delta; format: biochemical; conditions: recombinant CSKN1D 5 nM, ATP 10 μM
Sequence of Casein kinase 1 delta (CSKN1D) (P48730 whole entry): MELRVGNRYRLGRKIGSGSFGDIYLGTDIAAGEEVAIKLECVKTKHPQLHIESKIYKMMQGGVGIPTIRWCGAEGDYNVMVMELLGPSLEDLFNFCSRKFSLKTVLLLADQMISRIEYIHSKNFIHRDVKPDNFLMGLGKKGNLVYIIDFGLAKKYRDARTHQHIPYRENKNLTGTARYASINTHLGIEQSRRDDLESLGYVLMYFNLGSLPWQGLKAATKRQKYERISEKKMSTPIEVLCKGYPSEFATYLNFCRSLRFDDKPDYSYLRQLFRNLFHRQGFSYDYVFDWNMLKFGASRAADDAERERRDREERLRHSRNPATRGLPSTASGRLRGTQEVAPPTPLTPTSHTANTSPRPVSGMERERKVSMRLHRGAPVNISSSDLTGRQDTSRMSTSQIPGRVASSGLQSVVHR
Description: as §1

Sequence of Casein kinase 1 epsilon (CSKN1E) (P49674 whole entry): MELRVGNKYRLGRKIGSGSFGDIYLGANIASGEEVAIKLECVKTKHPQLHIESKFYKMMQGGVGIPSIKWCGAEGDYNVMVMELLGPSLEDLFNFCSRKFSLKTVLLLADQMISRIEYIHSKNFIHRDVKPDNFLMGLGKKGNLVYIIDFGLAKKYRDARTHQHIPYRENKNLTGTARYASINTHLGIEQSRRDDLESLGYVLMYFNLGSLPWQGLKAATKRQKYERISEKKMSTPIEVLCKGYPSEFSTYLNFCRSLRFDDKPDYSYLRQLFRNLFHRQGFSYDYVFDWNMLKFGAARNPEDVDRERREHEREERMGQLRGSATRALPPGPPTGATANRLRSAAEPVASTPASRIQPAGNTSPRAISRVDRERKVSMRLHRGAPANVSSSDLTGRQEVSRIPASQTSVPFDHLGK

IC50 [1] | IC50 [2] | Compound
> 1000 nM | > 1000 nM | Cc1nn(-c2ccc(Cl)c(Cl)c2)c(C)c1C(=O)Nc1nc2cc3c(cc2[nH]1)OC(F)(F)O3 [Compound 14, 1-(3,4-dichlorophenyl)-N-(2,2-difluoro-5H-[1,3]dioxolo[4′,5′:4,5]benzo[1,2-d]imidazol-6-yl)-3,5-dimethyl-1H-pyrazole-4-carboxamide]
200 to 1000 nM | 200 to 1000 nM | O=C(Nc1nc2cc3c(cc2[nH]1)OC(F)(F)O3)c1ccc(Cl)cc1Cl [Compound 43, 2,4-dichloro-N-(2,2-difluoro-5H-[1,3]dioxolo[4′,5′:4,5]benzo[1,2-d]imidazol-6-yl)benzamide]
> 1000 nM | > 1000 nM | O=C(/C=C/c1ccccc1)Nc1nc(C(=O)Nc2nc3cc4c(cc3[nH]2)OC(F)(F)O4)co1 [Compound 9, 2-cinnamamido-N-(2,2-difluoro-5H-[1,3]dioxolo[4′,5′:4,5]benzo[1,2-d]imidazol-6-yl)oxazole-4-carboxamide]
> 1000 nM | 200 to 1000 nM | COc1ccccc1C(=O)Nc1nc(C(=O)Nc2nc3cc4c(cc3[nH]2)OC(F)(F)O4)co1 [Compound 12, N-(2,2-difluoro-5H-[1,3]dioxolo[4′,5′:4,5]benzo[1,2-d]imidazol-6-yl)-2-(2-methoxybenzamido)oxazole-4-carboxamide]
> 1000 nM | > 1000 nM | O=C(Nc1nc2cc3c(cc2[nH]1)OC(F)(F)O3)c1cc(Cl)ccc1O [Compound 86, 5-chloro-N-(2,2-difluoro-5H-[1,3]dioxolo[4′,5′:4,5]benzo[1,2-d]imidazol-6-yl)-2-hydroxybenzamide]
200 to 1000 nM | < 200 nM | O=C(Nc1nc2cc3c(cc2[nH]1)OC(F)(F)O3)c1nc(NC(=O)c2ccc(Cl)cc2Cl)n[nH]1 [Compound 51, 3-(2,4-dichlorobenzamido)-N-(2,2-difluoro-5H-[1,3]dioxolo[4′,5′:4,5]benzo[1,2-d]imidazol-6-yl)-1H-1,2,4-triazole-5-carboxamide]
> 1000 nM | > 1000 nM | Cc1cc(C(=O)Nc2nc3cc4c(cc3[nH]2)OC(F)(F)O4)c(C)o1 [Compound 34, N-(2,2-difluoro-5H-[1,3]dioxolo[4′,5′:4,5]benzo[1,2-d]imidazol-6-yl)-2,5-dimethylfuran-3-carboxamide]
> 1000 nM | > 1000 nM | O=C(Nc1nc2cc3c(cc2[nH]1)OC(F)(F)O3)c1ncn[nH]1 [Compound 84, N-(2,2-difluoro-5H-[1,3]dioxolo[4′,5′:4,5]benzo[1,2-d]imidazol-6-yl)-1H-1,2,4-triazole-3-carboxamide]
> 1000 nM | > 1000 nM | O=C(Nc1n[nH]c(C(=O)Nc2nc3cc4c(cc3[nH]2)OC(F)(F)O4)n1)c1ccc([N+](=O)[O-])cc1 [Compound 61, N-(2,2-difluoro-5H-[1,3]dioxolo[4′,5′:4,5]benzo[1,2-d]imidazol-6-yl)-3-(4-nitrobenzamido)-1H-1,2,4-triazole-5-carboxamide]
200 to 1000 nM | 200 to 1000 nM | COc1ccc(C(=O)Nc2nc3cc4c(cc3[nH]2)OC(F)(F)O4)cc1 [Compound 46, N-(2,2-difluoro-5H-[1,3]dioxolo[4′,5′:4,5]benzo[1,2-d]imidazol-6-yl)-4-methoxybenzamide]
> 1000 nM | > 1000 nM | O=C(Nc1nc2cc3c(cc2[nH]1)OC(F)(F)O3)c1csc(-c2cccc(Cl)c2Cl)n1 [Compound 6, 2-(2,3-dichlorophenyl)-N-(2,2-difluoro-5H-[1,3]dioxolo[4′,5′:4,5]benzo[1,2-d]imidazol-6-yl)thiazole-4-carboxamide]
< 200 nM | < 200 nM | O=C(Nc1nc2cc3c(cc2[nH]1)OC(F)(F)O3)c1csc(-c2cscn2)n1 [Compound 135, N-(2,2-difluoro-5H-[1,3]dioxolo[4′,5′:4,5]benzo[1,2-d]imidazol-6-yl)-[2,4-bithiazole]-4-carboxamide]
